Patent US20230151003A1, “COMPOUNDS AND METHODS OF USE” (Exelixis, Inc., priority 2020, published 2023)

Key:
Assay type in all cases: cell-based
KDR = KDR (Homo sapiens, UniProt P35968); experiment: KDR autophosphorylation ELISA in HUVEC cells; set-up: endogenous in cells; host or cells: HUVEC (Lonza #C2519A); conditions: Table 3 Cellular Activities, VEGF165-stimulated, phospho-KDR ELISA
Description: Human umbilical vein endothelial cells or HUVEC (Lonza #C2519A) were seeded at 2×10^4 cells/well onto 96-well plates (Corning #3904), in EGM-2 growth medium (Lonza #CC-3162) containing 1% Penicillin Streptomycin (Thermo Fisher #15140-122). HUVEC cells were incubated at 37° C., 5% CO2 for 24 h and then starved for 24 h in serum-free EBM-2 basal medium (Lonza #CC-3156) containing 1% Penicillin Streptomycin. Test compounds were serially diluted to produce an 8-point dose curve in fresh serum-free medium to a final concentration of 0.3% DMSO (vehicle) and added to the cells and incubated for 1 h. Cells were then stimulated with 100 ng/mL recombinant human VEGF165 (R&D Systems #293-VE-500) for 5 min, washed with cold PBS, and immediately lysed with 130 μL of cold 1× lysis buffer [20 mM Tris, 137 mM sodium chloride, 2 mM EDTA, 10% glycerol, 1% NP-40 alternative, 1 mM activated sodium orthovanadate, 1 mM PefaBloc SC (Sigma-Aldrich #11429868001), protease/phosphatase inhibitor tablet (Thermo Fisher #A32959)]. Lysates were collected and 100 μL/well added into the human phospho-KDR DuoSet IC ELISA (R&D Systems #DYC1766-2). Assay was performed according to manufacturer's instructions and sample phospho-KDR concentrations were extrapolated using human phospho-KDR control (R&D Systems #841421) as a standard. Positive control wells (100% activity) contained VEGF165-stimulated, DMSO-treated cell lysates. Negative control wells (0% activity) contained non-stimulated cell lysates. IC50 values were calculated by nonlinear regression analysis using a 4-parameter logistic curve fit in ActivityBase XE (IDBS).

Met = Met (Homo sapiens, UniProt P08581); experiment: Met autophosphorylation ELISA in PC-3 cells; set-up: endogenous in cells; host or cells: PC-3 prostate cancer cells (ATCC #CRL-1435); conditions: Table 3 Cellular Activities, HGF-stimulated, phospho-Met ELISA, read-out: c-Met IC50
Description: PC-3 prostate cancer cells (ATCC #CRL-1435) were seeded at 4×10^4 cells/well onto 24-well plates (Greiner #662165), in DMEM (Thermo Fisher #11995-040) containing 10% FBS (Thermo Fisher #26140-079), 1% MEM NEAA (Thermo Fisher #11140-050), 1% GlutaMax (Thermo Fisher #35050-061), and 1% Penicillin Streptomycin (Thermo Fisher #15140-122). PC-3 cells were incubated at 37° C., 5% CO2 for 24 h and then starved for 3 h in serum-free medium. Test compounds were serially diluted to produce an 8-point dose curve in fresh serum-free medium to a final concentration of 0.3% DMSO (vehicle) and added to the cells and incubated for 1 h. Cells were then stimulated with 100 ng/mL recombinant human HGF (R&D Systems #294-HG-250) for 10 min, washed with cold PBS, and immediately lysed with 130 μL of cold 1× lysis buffer [20 mM Tris, 137 mM sodium chloride, 2 mM EDTA, 10% glycerol, 1% NP-40 alternative, 1 mM activated sodium orthovanadate, 1 mM PefaBloc SC (Sigma-Aldrich #11429868001), protease/phosphatase inhibitor tablet (Thermo Fisher #A32959)]. Lysates were clarified by centrifugation and 100 μL/well added into the PathScan phospho-Met (panTyr) Sandwich ELISA (Cell Signaling Technology #7333). Assay was performed according to manufacturer's instructions. Positive control wells (100% activity) contained HGF-stimulated, DMSO-treated cell lysates. Negative control wells (0% activity) contained HGF-stimulated, reference inhibitor-treated cell lysates. IC50 values were calculated by nonlinear regression analysis using a 4-parameter logistic curve fit in ActivityBase XE (IDBS).

Mer = biological target: T1, Mer (Homo sapiens, UniProt Q12866); experiment: Mer autophosphorylation ELISA in transient transfected 293A cells; conditions: Table 3 Cellular Activities; MERTK-transfected 293A cells, phospho-Mer ELISA
T1 construct: host or cells: 293A cells (Thermo Fisher #R70507)
T1 sequence (Q12866 21-999): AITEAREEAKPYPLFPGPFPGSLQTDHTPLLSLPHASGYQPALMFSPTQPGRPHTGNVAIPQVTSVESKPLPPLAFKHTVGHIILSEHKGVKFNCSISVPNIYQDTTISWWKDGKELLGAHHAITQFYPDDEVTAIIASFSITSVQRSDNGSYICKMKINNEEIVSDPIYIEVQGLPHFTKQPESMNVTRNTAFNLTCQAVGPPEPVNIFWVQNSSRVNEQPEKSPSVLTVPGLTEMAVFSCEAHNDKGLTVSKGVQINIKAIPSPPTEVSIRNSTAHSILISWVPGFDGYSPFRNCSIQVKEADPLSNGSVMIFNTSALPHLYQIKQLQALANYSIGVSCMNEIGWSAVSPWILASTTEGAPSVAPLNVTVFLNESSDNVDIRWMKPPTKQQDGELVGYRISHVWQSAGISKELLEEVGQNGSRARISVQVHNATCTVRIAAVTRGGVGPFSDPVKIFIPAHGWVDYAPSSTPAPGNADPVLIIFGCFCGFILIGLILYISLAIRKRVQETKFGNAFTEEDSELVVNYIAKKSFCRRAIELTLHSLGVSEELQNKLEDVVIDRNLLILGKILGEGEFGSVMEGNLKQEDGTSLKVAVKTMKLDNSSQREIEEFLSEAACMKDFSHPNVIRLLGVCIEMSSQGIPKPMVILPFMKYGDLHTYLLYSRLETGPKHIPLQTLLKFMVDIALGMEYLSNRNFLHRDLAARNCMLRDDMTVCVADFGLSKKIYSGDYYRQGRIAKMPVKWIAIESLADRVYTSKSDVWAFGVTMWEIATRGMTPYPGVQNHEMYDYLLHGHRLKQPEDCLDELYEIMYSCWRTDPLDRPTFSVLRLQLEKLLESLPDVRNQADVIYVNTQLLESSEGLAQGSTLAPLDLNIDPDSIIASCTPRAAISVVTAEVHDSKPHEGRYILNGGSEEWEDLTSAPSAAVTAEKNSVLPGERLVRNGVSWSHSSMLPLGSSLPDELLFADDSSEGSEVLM
Description: 293A cells (Thermo Fisher #R70507) were seeded at 1.5×10^6 cells/well onto 100 mm dish (Greiner #664169), in DMEM (Thermo Fisher #11995-040) containing 10% FBS (Thermo Fisher #26140-079), 1% MEM NEAA (Thermo Fisher #11140-050), 1% GlutaMax (Thermo Fisher #35050-061), and 1% Penicillin Streptomycin (Thermo Fisher #15140-122). 293A cells were incubated at 37° C., 5% CO2 for 24 h and then transfected with 6μg MERTK DNA (Genecopoeia #EX-Z8208-M02) using TransIT LT1 transfection reagent (Mirus-Bio #MIR2305). After 24 h incubation, the transfected 293A cells were seeded at 1×10^5 cells/well onto 96-well plates (Corning #3904) in DMEM growth medium overnight. Test compounds were serially diluted to produce an 8-point dose curve in fresh serum-free medium to a final concentration of 0.3% DMSO (vehicle) and added to the cells and incubated for 1 h. Cells were then immediately lysed with 150 μL of cold 1× lysis buffer […], 137 mM sodium chloride, 2 mM EDTA, 10% glycerol, 1% NP-40 alternative, 1 mM activated sodium orthovanadate, 1 mM PefaBloc SC (Sigma-Aldrich #11429868001), protease/phosphatase inhibitor tablet (Thermo Fisher #A32959)]. Lysates were clarified by centrifugation and 50 μL/well added into the human phospho-Mer DuoSet IC ELISA (R&D Systems #DYC2579-2). Assay was performed according to manufacturer's instructions and sample phospho-Mer concentrations were extrapolated using human phospho-Mer control (R&D Systems #841793) as a standard. Positive control wells (100% activity) contained DMSO-treated cell lysates. Negative control wells (0% activity) contained reference inhibitor-treated cell lysates. IC50 values were calculated by nonlinear regression analysis using a 4-parameter logistic curve fit in ActivityBase XE (IDBS).

Sequence of Met (P08581 25-1390): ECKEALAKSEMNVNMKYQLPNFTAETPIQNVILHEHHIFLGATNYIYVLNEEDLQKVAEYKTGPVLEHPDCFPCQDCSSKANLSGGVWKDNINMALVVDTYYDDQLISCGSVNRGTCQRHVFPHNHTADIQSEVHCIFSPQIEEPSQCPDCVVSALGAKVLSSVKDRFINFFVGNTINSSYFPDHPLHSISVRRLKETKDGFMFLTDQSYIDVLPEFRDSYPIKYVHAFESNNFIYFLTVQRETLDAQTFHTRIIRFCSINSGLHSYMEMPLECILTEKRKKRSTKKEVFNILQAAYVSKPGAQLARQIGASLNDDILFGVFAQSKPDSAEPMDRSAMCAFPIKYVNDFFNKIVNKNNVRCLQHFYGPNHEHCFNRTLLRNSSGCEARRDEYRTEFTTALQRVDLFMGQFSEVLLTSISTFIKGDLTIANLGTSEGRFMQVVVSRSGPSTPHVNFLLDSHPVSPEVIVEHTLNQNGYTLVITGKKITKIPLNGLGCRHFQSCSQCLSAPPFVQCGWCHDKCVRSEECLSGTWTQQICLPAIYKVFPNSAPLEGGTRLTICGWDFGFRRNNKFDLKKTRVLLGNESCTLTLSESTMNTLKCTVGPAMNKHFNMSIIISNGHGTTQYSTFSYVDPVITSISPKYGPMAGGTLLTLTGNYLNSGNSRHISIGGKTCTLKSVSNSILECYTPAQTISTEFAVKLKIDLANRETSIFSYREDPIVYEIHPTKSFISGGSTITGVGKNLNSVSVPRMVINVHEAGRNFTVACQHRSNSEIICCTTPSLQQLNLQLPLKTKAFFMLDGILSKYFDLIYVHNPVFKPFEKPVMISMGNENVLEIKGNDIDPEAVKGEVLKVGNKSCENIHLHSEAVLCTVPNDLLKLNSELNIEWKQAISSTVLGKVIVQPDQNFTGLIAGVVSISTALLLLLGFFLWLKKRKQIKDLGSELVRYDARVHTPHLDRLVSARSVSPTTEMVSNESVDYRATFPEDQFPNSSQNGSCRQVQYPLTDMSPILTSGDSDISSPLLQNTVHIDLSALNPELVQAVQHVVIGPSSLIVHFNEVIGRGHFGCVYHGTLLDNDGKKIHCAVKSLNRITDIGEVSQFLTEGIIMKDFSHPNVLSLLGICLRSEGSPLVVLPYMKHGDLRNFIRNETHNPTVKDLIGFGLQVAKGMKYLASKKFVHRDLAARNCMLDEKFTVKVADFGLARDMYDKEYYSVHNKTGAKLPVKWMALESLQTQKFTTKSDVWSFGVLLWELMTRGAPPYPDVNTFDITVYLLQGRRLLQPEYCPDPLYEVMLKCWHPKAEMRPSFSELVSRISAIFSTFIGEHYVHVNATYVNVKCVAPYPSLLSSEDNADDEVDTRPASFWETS
Sequence of KDR (P35968 20-1356): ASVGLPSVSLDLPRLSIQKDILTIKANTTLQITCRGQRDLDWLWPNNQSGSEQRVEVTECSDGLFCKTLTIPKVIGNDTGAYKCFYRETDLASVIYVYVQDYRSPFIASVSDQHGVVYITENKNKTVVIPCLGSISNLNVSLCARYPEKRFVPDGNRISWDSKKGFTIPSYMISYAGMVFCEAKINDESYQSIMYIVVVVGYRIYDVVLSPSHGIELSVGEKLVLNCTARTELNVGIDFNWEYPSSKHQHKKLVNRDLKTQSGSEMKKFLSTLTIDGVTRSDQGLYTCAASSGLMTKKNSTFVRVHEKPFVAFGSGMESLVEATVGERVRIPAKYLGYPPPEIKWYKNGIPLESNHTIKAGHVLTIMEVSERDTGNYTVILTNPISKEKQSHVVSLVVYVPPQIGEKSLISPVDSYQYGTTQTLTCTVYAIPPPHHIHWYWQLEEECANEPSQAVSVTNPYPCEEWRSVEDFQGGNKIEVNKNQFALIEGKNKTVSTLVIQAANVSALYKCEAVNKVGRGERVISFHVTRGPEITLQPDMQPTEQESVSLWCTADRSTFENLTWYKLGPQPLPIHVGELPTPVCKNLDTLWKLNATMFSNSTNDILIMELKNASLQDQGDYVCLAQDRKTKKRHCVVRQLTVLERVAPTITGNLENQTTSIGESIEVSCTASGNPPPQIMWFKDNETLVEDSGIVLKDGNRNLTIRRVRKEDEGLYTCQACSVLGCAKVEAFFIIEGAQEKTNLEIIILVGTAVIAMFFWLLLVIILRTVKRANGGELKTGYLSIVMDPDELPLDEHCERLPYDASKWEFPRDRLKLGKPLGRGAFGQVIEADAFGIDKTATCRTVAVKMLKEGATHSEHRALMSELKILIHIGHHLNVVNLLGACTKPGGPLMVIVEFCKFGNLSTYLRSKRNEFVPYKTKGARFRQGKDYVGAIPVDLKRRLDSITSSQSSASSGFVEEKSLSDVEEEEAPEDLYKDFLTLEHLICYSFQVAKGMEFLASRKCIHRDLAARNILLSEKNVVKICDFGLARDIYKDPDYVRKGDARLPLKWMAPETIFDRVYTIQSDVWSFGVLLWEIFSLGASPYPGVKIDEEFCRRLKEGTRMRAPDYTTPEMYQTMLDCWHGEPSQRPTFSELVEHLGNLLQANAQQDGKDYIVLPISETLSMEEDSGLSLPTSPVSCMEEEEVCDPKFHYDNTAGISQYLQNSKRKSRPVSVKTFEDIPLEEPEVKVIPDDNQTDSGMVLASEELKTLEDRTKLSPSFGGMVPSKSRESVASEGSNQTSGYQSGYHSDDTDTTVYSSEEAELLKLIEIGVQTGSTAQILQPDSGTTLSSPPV

| Compound | IC50 (KDR) [µM] | IC50 (Met) [µM] | IC50 (Mer) [µM] |
| --- | --- | --- | --- |
| COc1cc2nccc(Oc3ccc(NC(=O)c4c5n(c(C)c(-c6ccsc6)c4=O)CCOC5)cc3)c2nc1OC [Compound 312, N-[4-[(6,7-Dimethoxy-1,5-naphthyridin-4-yl)oxy]phenyl]-6-methyl-8-oxo-7-thiophen-3-yl-3,4-dihydro-1H-pyrido [2,1-c][1,4]oxazine-9-carboxamide] | – | ≤ 0.1 | ≤ 0.1 |
| COc1cc2nccc(Oc3ccc(NC(=O)c4c5n(c(C)c(-c6ccoc6)c4=O)CCOC5)cc3)c2nc1OC [Compound 311, N-[4-[(6,7-Dimethoxy-1,5-naphthyridin-4-yl)oxy]phenyl]-7-(furan-3-yl)-6-methyl-8-oxo-3,4-dihydro-1H-pyrido[2,1-c][1,4]oxazine-9-carboxamide] | – | ≤ 0.1 | ≤ 0.1 |
| COc1cc2nccc(Oc3ccc(NC(=O)c4c5n(c(C)c(-c6cc(C)cs6)c4=O)CCOC5)cc3)c2nc1OC [Compound 313, N-[4-[(6,7-Dimethoxy-1,5-naphthyridin-4-yl)oxy]phenyl]-6-methyl-7-(4-methylthiophen-2-yl)-8-oxo-3,4-dihydro-1H-pyrido[2,1-c][1,4]oxazine-9-carboxamide] | – | 0.1 to 0.3 | ≤ 0.1 |
| COc1cc2nccc(Oc3ccc(NC(=O)c4c5n(c(C)c(-c6ccco6)c4=O)CCOC5)cc3)c2nc1OC [Compound 315, N-[4-[(6,7-Dimethoxy-1,5-naphthyridin-4-yl)oxy]phenyl]-7-(furan-2-yl)-6-methyl-8-oxo-3,4-dihydro-1H-pyrido[2,1-c][1,4]oxazine-9-carboxamide] | – | ≤ 0.1 | ≤ 0.1 |
| COc1cc2nccc(Oc3ccc(NC(=O)c4c5n(c(C)c(-c6cccs6)c4=O)CCOC5)cc3)c2nc1OC [Compound 316, N-[4-[(6,7-Dimethoxy-1,5-naphthyridin-4-yl)oxy]phenyl]-6-methyl-8-oxo-7-thiophen-2-yl-3,4-dihydro-1H-pyrido [2,1-c][1,4]oxazine-9-carboxamide] | – | ≤ 0.1 | ≤ 0.1 |

Continued, values first:

| IC50 (KDR) [µM] | IC50 (Met) [µM] | IC50 (Mer) [µM] | Compound |
| --- | --- | --- | --- |
| ≤ 0.1 | ≤ 0.1 | ≤ 0.1 | COCc1nc(C)c(-c2cccc(C)n2)c(O)c1C(=O)Nc1ccc(Oc2ccnc3cc(OC)c(OC)nc23)c(F)c1 [Compound 197, N-[4-[(6,7-Dimethoxy-1,5-naphthyridin-4-yl)oxy]-3-fluorophenyl]-4-hydroxy-2-(methoxymethyl)-6-methyl-5-(6-methylpyridin-2-yl)pyridine-3-carboxamide] |
| 0.3 to 1 | 0.3 to 1 | 0.3 to 1 | COc1cc2nccc(Oc3ccc(NC(=O)c4cc(C(C)=O)c(C)n(-c5ccoc5)c4=O)cc3)c2nc1OC [Compound 239, 5-Acetyl-N-[4-[(6,7-dimethoxy-1,5-naphthyridin-4-yl)oxy]phenyl]-1-(furan-3-yl)-6-methyl-2-oxopyridine-3-carboxamide] |
| 0.3 to 1 | ≤ 0.1 | ≤ 0.1 | COc1cc2nccc(Oc3ccc(NC(=O)c4ccc(C)n(-c5ccnc(OC(C)C)c5)c4=O)cc3F)c2nc1OC [Compound 225, N-[4-[(6,7-Dimethoxy-1,5-naphthyridin-4-yl)oxy]-3-fluorophenyl]-6-methyl-2-oxo-1-(2-propan-2-yloxypyridin-4-yl)pyridine-3-carboxamide] |
| – | 0.3 to 1 | – | CCOc1ccc(-n2c(C)ccc(C(=O)Nc3ccc(Oc4ccnc5cc(OC)cnc45)c(F)c3)c2=O)nc1 [Compound 213, 1-(5-Ethoxypyridin-2-yl)-N-[3-fluoro-4-[(7-methoxy-1,5-naphthyridin-4-yl)oxy]phenyl]-6-methyl-2-oxopyridine-3-carboxamide] |
| – | ≤ 0.1 | ≤ 0.1 | COc1cc2nccc(Oc3ccc(NC(=O)c4c5n(c(C)c(-c6ccco6)c4=O)CCOC5)cc3F)c2nc1OC [Compound 314, N-[4-[(6,7-Dimethoxy-1,5-naphthyridin-4-yl)oxy]-3-fluorophenyl]-7-(furan-2-yl)-6-methyl-8-oxo-3,4-dihydro-1H-pyrido[2,1-c][1,4]oxazine-9-carboxamide] |
| – | 0.1 to 0.3 | – | CCOc1ccc(-n2c(C)ccc(C(=O)Nc3ccc(Oc4ccnc5cc(OC)c(OC)nc45)c(F)c3)c2=O)nc1 [Compound 212, N-[4-[(6,7-Dimethoxy-1,5-naphthyridin-4-yl)oxy]-3-fluorophenyl]-1-(5-ethoxypyridin-2-yl)-6-methyl-2-oxopyridine-3-carboxamide] |
